# Measured values from patent US5985261A, “Use of thioredoxin-like molecules for induction of MnSOD to treat oxidative damage” (National Jewish Medical and Research Center, priority 1997, dated 1999).
# Starred links: 1 amine or outer side, 2 acyl side, 3 side chain; linkers in the order of their positions; H or OH if unused. Positions of bridges follow the written chain, without caps; N, C: chain ends. Non-standard residues stand in square brackets, D forms with d. Residues, ends and D or L forms follow the SMILES beside them. Chains are numbered I, II in the order given. Actinocin(9to1) = Cc1c2oc3c(C)ccc(C(=O)[*:1])c3nc-2c(C(=O)[*:2])c(N)c1=O; NMeV = CN[C@H](C(=O)O)C(C)C; Sar = CNCC(=O)O
# Tested on: MnSOD mRNA in A549 cells
# Assay: Effect on MnSOD mRNA induction by thioredoxin in A549 cells (Northern blot)
# Format: cell-based, human
# Protocol: Reduced thioredoxin (recombinant, E. coli; Promega) was prepared by treating 1 mM thioredoxin with 2 mM dithiothreitol (DTT) for 20 min at room temperature followed by removal of excess DTT using a G-25 spin column. A549 cells were grown in F-12K medium with 10% serum. Confluent monolayers were treated with oxidized thioredoxin (3 or 7 μM), with and without the thioredoxin reducing system [thioredoxin reductase (0.1 μM)+NADPH (2 mM)]. Incubations were for 16 hours. Total RNA was isolated from cells by guanidine isothiocyanate lysis and cesium chloride centrifugation of the lysate (147,000× g, 20-25° C.) in an ultracentrifuge (Beckman) by the methods of Sambrook et al., ibid. Total RNA was quantified spectrophotometrically.
# Twenty micrograms of RNA was resolved by electrophoresis in 1% agarose, 2.5 M formaldehyde gel in a buffer containing 20 mM MOPS and 1 mM EDTA (pH 7.4). RNA was transferred to nitrocellulose and blots were prehybridized 2-12 hours in 50% formamide, 0.75 M sodium chloride, 0.075 M sodium citrate (pH 7.0), 5× Denhardt's solution, 50 μg/ml salmon sperm DNA, and 0.1% SDS at 42° C. Blots were hybridized with cDNA for MnSOD labeled to a specific activity of 2-7×10^7 cpm using ^32 P-γ CTP (ICN) in hybridization solution at 42° C. overnight and then were washed in 0.3 M sodium chloride, 0.03 M sodium citrate, 0.1% SDS at 42° C. Autoradiographs were made by exposing blots to x-ray film (Kodak) at -70° C. with intensifying screens. Blots were exposed to phosphor-imager screens (Molecular Dynamics) and densitometry was performed with a Macintosh computer using MD Image Quant Version 3.35.
# To evaluate the effect of oxidation of TRX-SH2 on MnSOD induction, A549 cells were incubated with diamide (2 mM; 30 min) or CDNB (100 μM; 45 min). After incubation, cells were washed and fresh medium added. The cells next were incubated with oxidized thioredoxin (28 μM; 6 h) and then processed for Northern analysis as described in Example 2.
# A549 cells were incubated with actinomycin D ([…]), a transcriptional inhibitor, or cyclohexamide (10 μg/ml), a translation inhibitor, for 1 hour followed by addition of thioredoxin (28 μM) and further incubation for a period of 16 hours. mRNA was quantified as previously described.
smiles,measurement,setting,value
CN(C)C(=O)/N=N/C(=O)N(C)C [diamide],effect on elevation of MnSOD mRNA by thioredoxin,"diamide 2 mM, 30 min, washed, then oxidized thioredoxin 28 μM, 6 h",prevented elevation of MnSOD mRNA by thioredoxin
"C[C@@H]1C[C@@H]([C@H](O)CC2CC(=O)NC(=O)C2)C(=O)[C@@H](C)C1 [Cycloheximide, cycloheximide]",effect on thioredoxin-mediated increase in MnSOD mRNA,"cyclohexamide 10 μg/ml, 1 hour, then thioredoxin 28 μM, 16 hours",potentiated the thioredoxin-mediated increase in MnSOD mRNA
O=[N+]([O-])c1ccc(Cl)c([N+](=O)[O-])c1 [CDNB],effect on increased expression of MnSOD mRNA by thioredoxin,"CDNB 100 μM, 45 min, washed, then oxidized thioredoxin 28 μM, 6 h",prevented increased expression of MnSOD mRNA by thioredoxin
"Cc1c2oc3c(C)ccc(C(=O)N[C@@H]4C(=O)N[C@H](C(C)C)C(=O)N5CCC[C@H]5C(=O)N(C)CC(=O)N(C)[C@@H](C(C)C)C(=O)O[C@@H]4C)c3nc-2c(C(=O)N[C@@H]2C(=O)N[C@H](C(C)C)C(=O)N3CCC[C@H]3C(=O)N(C)CC(=O)N(C)[C@@H](C(C)C)C(=O)O[C@@H]2C)c(N)c1=O [actinomycin D] (I: T[dV]P[Sar][NMeV] / II: T[dV]P[Sar][NMeV]; ester I:1-I:C, II:1-II:C; linker I:N-II:N via Actinocin(9to1))",effect on production of MnSOD mRNA,"actinomycin D, 1 hour, then thioredoxin 28 μM, 16 hours",inhibited
